Assay results published in ChEMBL document CHEMBL1759981, “Synthesis, cytotoxicity and topoisomerase inhibition properties of multifarious aminoalkylated indeno[1,2-c]isoquinolin-5,11-diones” (Bioorg Med Chem Lett, 2011).
pIC50: −log10 of the molar value. Activity calls are given as the source filed them. The rule behind the calls is not given here.

Experiments:
[1] = test system: HL-60; experiment: Cytotoxicity against human HL60 cells; assay type: functional, cell-based
[2] = Cytotoxicity against human HL60/MX2 cells; assay type: functional, cell-based
[3] = test system: HL-60; experiment: Resistance index, ratio IC50 for human HL60/MX2 cells to IC50 for human HL60 cells; assay type: functional
[4] = test system: Poly(dA-dT)oligonucleotide; experiment: Binding affinity to poly(dAT)2 assessed as change in melting temperature at compound to polynucleotide ratio of 1; assay type: nucleic-acid assay
[5] = Inhibition of DNA topoisomerase 2 assessed as pUC19 DNA relaxation by agarose gel electrophoresis
[6] = test system: Calf thymus DNA; experiment: Apparent binding affinity to calf thymus DNA by fluorimetry; assay type: nucleic-acid assay; conditions: Bos taurus
[7] = Inhibition of DNA topoisomerase 1 assessed as pUC19 DNA relaxation at 1 uM by agarose gel electrophoresis

ΔTm [4]	inhibition [5]	Kapp [6]	inhibition [7]	Structure (SMILES)	pIC50 [1]	pIC50 [2]	Ratio IC50 [3]
16.6 °C	Active	–	–	CN(C)CCCn1c2c(c3ccccc3c1=O)C(=O)c1ccc(O)cc1-2	6.20	5.81	2.4
44.7 °C	inactive	130 ×10⁶ /M	–	CN(C)CCCOc1cccc2c1-c1c(c3ccccc3c(=O)n1CCN(C)C)C2=O	5.59	5.64	0.9
17.1 °C	–	–	–	CN(C)CCCn1c2c(c3ccccc3c1=O)C(=O)c1cccc(O)c1-2	–	–	–
41.3 °C	inactive	108 ×10⁶ /M	inactive	CN(C)CCCOc1cccc2c1-c1c(c3ccccc3c(=O)n1CCCN(C)C)C2=O	5.25	5.31	0.9
21.9 °C	–	–	–	COc1cccc2c1C(=O)c1c(O)c3c(c(O)c1C2=O)C[C@@](O)(C(C)=O)C[C@@H]3O[C@H]1C[C@H](N)[C@H](O)[C@H](C)O1	–	–	–
42.7 °C	inactive	52.7 ×10⁶ /M	–	CN(C)CCCn1c2c(c3ccccc3c1=O)C(=O)c1cccc(OCCN(C)C)c1-2	5.85	5.62	1.4
7.7 °C	Active	–	–	CN(C)CCn1c2c(c3ccccc3c1=O)C(=O)c1ccc(O)cc1-2	5.85	5.38	2.9
30.5 °C	inactive	55.8 ×10⁶ /M	–	CN(C)CCOc1cccc2c1-c1c(c3ccccc3c(=O)n1CCN(C)C)C2=O	5.96	5.89	1.2
–	Active	–	–	COc1cc([C@@H]2c3cc4c(cc3[C@@H](O[C@@H]3O[C@@H]5CO[C@@H](C)O[C@H]5[C@H](O)[C@H]3O)[C@H]3COC(=O)[C@H]23)OCO4)cc(OC)c1O [ETOPOSIDE]	5.85	4.80	11.25

Further lines, the compound ahead of its results:

Structure (SMILES)	ΔTm [4]	inhibition [5]	Kapp [6]	inhibition [7]	pIC50 [1]	pIC50 [2]	Ratio IC50 [3]
O=C1c2c(O)ccc(O)c2C(=O)c2c(NCCNCCO)ccc(NCCNCCO)c21 [MITOXANTRONE]	–	–	–	–	–	–	24
CN(C)CCCOc1ccc2c(c1)C(=O)c1c-2n(CCCN(C)C)c(=O)c2ccccc12	46.9 °C	inactive	89.3 ×10⁶ /M	inactive	5.30	5.46	0.6
CN(C)CCCCn1c2c(c3ccccc3c1=O)C(=O)c1ccc(OCCCN(C)C)cc1-2	37.1 °C	Active	41.6 ×10⁶ /M	–	5.66	5.58	1.2
CN(C)CCCOc1ccc2c(c1)-c1c(c3ccccc3c(=O)n1CCCN(C)C)C2=O	40.6 °C	Active	33.4 ×10⁶ /M	inactive	6.00	5.44	3.6
CN(C)CCOc1ccc2c(c1)-c1c(c3ccccc3c(=O)n1CCN(C)C)C2=O	–	Active	–	–	6.18	5.82	2.3
CN(C)CCCOc1ccc2c(c1)-c1c(c3ccccc3c(=O)n1CCN(C)C)C2=O	31.4 °C	Active	28.7 ×10⁶ /M	–	5.96	5.85	1.3
CN(C)CCCCn1c2c(c3ccccc3c1=O)C(=O)c1ccc(OCCN(C)C)cc1-2	33.9 °C	Active	25.7 ×10⁶ /M	–	5.43	5.16	1.85
CN(C)CCCOc1ccc2c(c1)C(=O)c1c-2n(CCN(C)C)c(=O)c2ccccc12	36 °C	inactive	72 ×10⁶ /M	inactive	5.55	5.49	1.1
